Patent US6525001B1, “Substituted pyrimidine and pyridine herbicides” (Mid-American Commercialization Corporation, priority 1997, dated 2003)

Columns and labels:
Assay type in all cases: in vivo
[1] = tested on: common groundsel (Senecio vulgaris); assay: Test E pre-/postemergence/post directed; design: key: 0 is no injury; 100 is complete control
Method in brief: (§1)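 Injury was scored visually on a 0 to 100 scale (100 = complete control) 13 to 21 days after treatment of greenhouse-grown plants. Test chemicals, in a surfactant-containing non-phytotoxic solvent, were sprayed onto soil within a day of planting, onto plants at the two to four leaf stage, or directed at the base of the plants.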

[2] = tested on: alexandergrass (Brachiaria plantaginea); assay: Test E pre-/postemergence/post directed; design: key: 0 is no injury; 100 is complete control; conditions: PREEMERGENCE
Method in brief: as §1

[3] = tested on: annual bluegrass (Poa annua); assay: Test D; conditions: PREEMERGENCE
[4] = tested on: chickweed (Stellaria media); assay: Test D; conditions: PREEMERGENCE
[5] = tested on: deadnettle (Lamium amplexicaule); assay: Test D; conditions: PREEMERGENCE
rape (Brassica napus) = assay: Test D; design: key: 0 is no effect; 100 is complete control; conditions: PREEMERGENCE
[6] = tested on: winter wheat (Triticum aestivum); assay: Test D; conditions: PREEMERGENCE

**Q.** How did the “Plant response rating, Com. groundsel” value ([1]; POSTEMERGENCE, Rate 125 g/ha) turn out when Cc1cnc(-c2ccc(C(F)(F)F)cc2)nc1Cc1cccc(OC(F)(F)F)c1 [Compound 15] was run?
**A.** 0

**Q.** How did the “Plant response rating, Alexandergrass” value ([2]; Rate 32 g/ha) turn out when CCc1cnc(-n2ccc(C(F)(F)F)n2)nc1Cc1cccc(C(F)(F)F)c1 [Compound 46] was run?
**A.** 0

**Q.** And the “Plant response rating, Alexandergrass” value ([2]; Rate 64 g/ha)?
**A.** 0

**Q.** What about the “Plant response rating, Annual bluegras” value ([3]; Rate 31 g/ha) of the same molecule?
**A.** 60

**Q.** What about the “Plant response rating, Annual bluegras” value ([3]; Rate 62 g/ha) of the same molecule?
**A.** 90

**Q.** What about the “Plant response rating, Chickweed” value ([4]; Rate 31 g/ha) of the same molecule?
**A.** 70

**Q.** What about the “Plant response rating, Chickweed” value ([4]; Rate 62 g/ha) of the same molecule?
**A.** 70

**Q.** What about the “Plant response rating, Deadnettle” value ([5]; Rate 31 g/ha) of the same molecule?
**A.** 90

**Q.** What about the “Plant response rating, Deadnettle” value ([5]; Rate 62 g/ha) of the same molecule?
**A.** 90

**Q.** What about the “Plant response rating, Rape” value (rape (Brassica napus); Rate 31 g/ha) of the same molecule?
**A.** 50

**Q.** And the “Plant response rating, Rape” value (rape (Brassica napus); Rate 62 g/ha)?
**A.** 100

**Q.** And the “Plant response rating, Wheat (winter)” value ([6]; Rate 31 g/ha)?
**A.** 40

**Q.** What about the “Plant response rating, Wheat (winter)” value ([6]; Rate 62 g/ha) of the same molecule?
**A.** 2

**Q.** Cc1cnc(-n2ccc(C(F)(F)F)n2)nc1Cc1cccc(C(F)(F)F)c1 [Example 2, 5-methyl-4-[[3-(trifluoromethyl)phenyl]methyl]-2-[3-(trifluoromethyl)-1H-pyrazol-1-yl]pyrimidine] was tested. Which “Plant response rating, Com. groundsel” value ([1]; POSTEMERGENCE, Rate 32 g/ha) did it give?
**A.** 0

**Q.** With Cc1cnc(-n2cnc(C(F)(F)F)n2)nc1C(=O)c1cccc(C(F)(F)F)c1 [Compound 67] as the molecule, how does the “Plant response rating, Com. groundsel” value ([1]; PREEMERGENCE, Rate 32 g/ha) read?
**A.** 0
